Data reported in patent US20060063759A1, “Tricyclic steroid hormone nuclear receptor modulators” (priority 2002, published 2006).

Tests used:
human MR = molecular target: T1, human MR (Homo sapiens, UniProt P08235); assay: Mineralocorticoid Receptor Binding Assay ([3H]-aldosterone); details: [3H]-aldosterone binding, human MR expressed in Sf9 cells; read-out: MR Ki
T1 construct: The full length human MR gene is cloned from a human kidney or human brain cDNA library; His tag from the pAcHLT vector (own knowledge); made in house; host or cells: Sf9 insect cells (baculovirus, pAcHLT transfer vector)
T1 sequence (P08235 1-984): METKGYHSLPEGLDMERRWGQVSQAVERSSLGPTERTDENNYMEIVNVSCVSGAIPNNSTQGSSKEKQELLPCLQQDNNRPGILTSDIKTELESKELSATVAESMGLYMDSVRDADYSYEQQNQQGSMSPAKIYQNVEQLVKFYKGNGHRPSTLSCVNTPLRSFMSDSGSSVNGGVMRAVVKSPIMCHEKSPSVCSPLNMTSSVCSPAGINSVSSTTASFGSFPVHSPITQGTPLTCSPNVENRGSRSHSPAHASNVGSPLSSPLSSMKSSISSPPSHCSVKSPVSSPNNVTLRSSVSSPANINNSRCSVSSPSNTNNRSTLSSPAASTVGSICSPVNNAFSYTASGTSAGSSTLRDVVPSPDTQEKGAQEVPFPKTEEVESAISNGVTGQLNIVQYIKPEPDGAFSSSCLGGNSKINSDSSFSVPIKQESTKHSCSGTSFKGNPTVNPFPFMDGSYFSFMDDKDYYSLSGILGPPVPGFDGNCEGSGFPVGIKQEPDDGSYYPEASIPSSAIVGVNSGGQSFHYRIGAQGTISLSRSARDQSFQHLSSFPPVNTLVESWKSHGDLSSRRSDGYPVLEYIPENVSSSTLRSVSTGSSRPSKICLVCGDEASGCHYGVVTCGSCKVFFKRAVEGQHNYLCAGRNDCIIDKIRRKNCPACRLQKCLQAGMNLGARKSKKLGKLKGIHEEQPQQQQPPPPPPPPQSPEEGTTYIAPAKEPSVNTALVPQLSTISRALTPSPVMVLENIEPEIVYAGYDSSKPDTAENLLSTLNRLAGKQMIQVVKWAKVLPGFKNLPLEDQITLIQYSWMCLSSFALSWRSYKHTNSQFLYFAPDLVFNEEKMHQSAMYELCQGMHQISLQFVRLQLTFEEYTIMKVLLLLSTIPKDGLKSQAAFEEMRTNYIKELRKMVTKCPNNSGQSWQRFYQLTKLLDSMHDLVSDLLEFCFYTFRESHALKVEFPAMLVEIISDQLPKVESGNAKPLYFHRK
In short: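 Receptor source: freeze-thaw lysate of baculovirus-infected Sf9 cells carrying full-length human MR, 20-25 μg protein. Incubation ~16 h at 4 °C with shaking, pH 7.5 buffer containing 30 mM sodium molybdate and 10% glycerol.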

glucocorticoid receptor = molecular target: T2, glucocorticoid receptor (Homo sapiens, UniProt P04150); assay: Glucocorticoid Receptor Binding Assay ([3H]-dexamethasone, A549 cell extract); details: [3H]-dexamethasone binding, read-out: GR Ki
T2 construct: containing 50-200 ug of A549 cell extract and 1.86 nM [^3H]-dexamethasone; host or cells: A549 human lung epithelial cells (sonicated cell extract)
T2 sequence (P04150 1-777): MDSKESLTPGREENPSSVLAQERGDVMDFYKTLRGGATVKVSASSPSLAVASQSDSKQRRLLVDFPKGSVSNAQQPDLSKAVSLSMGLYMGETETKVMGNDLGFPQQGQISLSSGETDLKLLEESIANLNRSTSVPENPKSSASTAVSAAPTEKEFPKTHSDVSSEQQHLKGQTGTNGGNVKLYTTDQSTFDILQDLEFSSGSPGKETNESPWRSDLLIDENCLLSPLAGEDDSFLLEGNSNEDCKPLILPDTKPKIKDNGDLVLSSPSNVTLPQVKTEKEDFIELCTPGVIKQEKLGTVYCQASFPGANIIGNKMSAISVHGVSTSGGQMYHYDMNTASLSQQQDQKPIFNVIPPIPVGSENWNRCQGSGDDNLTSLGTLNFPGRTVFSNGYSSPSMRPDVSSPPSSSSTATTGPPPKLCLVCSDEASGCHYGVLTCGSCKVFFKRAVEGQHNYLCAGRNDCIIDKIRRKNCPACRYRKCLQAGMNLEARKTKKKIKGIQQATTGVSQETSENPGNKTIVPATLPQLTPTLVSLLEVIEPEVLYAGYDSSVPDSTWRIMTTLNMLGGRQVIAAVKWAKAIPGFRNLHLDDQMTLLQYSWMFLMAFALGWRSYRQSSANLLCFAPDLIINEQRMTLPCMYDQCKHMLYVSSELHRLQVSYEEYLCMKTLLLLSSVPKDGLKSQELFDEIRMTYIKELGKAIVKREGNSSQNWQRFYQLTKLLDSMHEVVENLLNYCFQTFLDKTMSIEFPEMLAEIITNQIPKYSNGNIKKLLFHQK
In short: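 Displacement of [3H]-dexamethasone (1.86 nM) from glucocorticoid receptor in sonicated A549 lung epithelial cell extracts, 16 h at 4 °C, pH 7.2 molybdate-containing buffer. Bound radioactivity was scintillation-counted after charcoal/dextran stripping of free ligand.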

SMILES | melting point [°C] | Ki (human MR) [nM] | Ki (glucocorticoid receptor) [nM]
CS(=O)(=O)Nc1cc(C=C2c3ccccc3CCc3ccccc32)ccc1O [Example 64, N-[5-(10,11-Dihydro-dibenzo[a,d]cyclohepten-5-ylidenemethyl)-2-hydroxy-phenyl]-methanesulfonamide] | 122.6 | < 500 | < 500
FC(F)Oc1cccc(C=C2c3ccccc3CCc3ccccc32)c1 [Example 65, 5-(3-Difluoromethoxy-benzylidene)-10,11-dihydro-5H-dibenzo[a,d]cycloheptene] | 91.3 | < 500 | < 10000
O=Cc1ccc(C=C2c3ccccc3CCc3ccccc32)cc1 [Example 68, 4-(10,11-Dihydro-dibenzo[a,d]cyclohepten-5-ylidenemethyl)-benzaldehyde] | 106.4 | < 500 | < 500
O=Cc1ccccc1C=C1c2ccccc2CCc2ccccc21 [Example 69, 2-(10,11-Dihydro-dibenzo[a,d]cyclohepten-5-ylidenemethyl)-benzaldehyde] | 198.9 | < 500 | < 500
O=Cc1cccc(C=C2c3ccccc3CCc3ccccc32)c1 [Example 70, 3-(10,11-Dihydro-dibenzo[a,d]cyclohepten-5-ylidenemethyl)-benzaldehyde] | 86.7 | < 500 | < 1000
FC(F)c1ccccc1C=C1c2ccccc2CCc2ccccc21 [Example 71, 5-(2-Difluoromethyl-benzylidene)-10,11-dihydro-5H-dibenzo[a,d]cycloheptene] | 13.3 | < 500 | < 500
FC(F)c1cccc(C=C2c3ccccc3CCc3ccccc32)c1 [Example 72, 5-(3-Difluoromethyl-benzylidene)-10,11-dihydro-5H-dibenzo[a,d]cycloheptene] | 92.5 | < 500 | < 10000
OCc1ccccc1C=C1c2ccccc2CCc2ccccc21 [Example 74, [2-(10,11-Dihydro-dibenzo[a,d]cyclohepten-5-ylidenemethyl)-phenyl]-methanol] | 121.8 | < 500 | < 500
N#Cc1ccccc1C=C1c2ccccc2CCc2ccccc21 [Example 80, 2-(10,11-Dihydro-dibenzo[a,d]cyclohepten-5-ylidenemethyl)-benzonitrile] | 185.4 | < 500 | < 500
N#Cc1cccc(C=C2c3ccccc3CCc3ccccc32)c1 [Example 81, 3-(10,11-Dihydro-dibenzo[a,d]cyclohepten-5-ylidenemethyl)-benzonitrile] | 115.7 | < 500 | < 10000
Nc1cccc(C=C2c3ccccc3CCc3ccccc32)c1 [Example 86, 3-(10,11-Dihydro-dibenzo[a,d]cyclohepten-5-ylidenemethyl)-phenylamine] | 204.3 | < 500 | < 500
Nc1ccccc1C=C1c2ccccc2CCc2ccccc21 [Example 87, 2-(10,11-Dihydro-dibenzo[a,d]cyclohepten-5-ylidenemethyl)-phenylamine] | 145.2 | < 500 | < 500
Nc1ccc(C=C2c3ccccc3CCc3ccccc32)cc1 [Example 88, 4-(10,11-Dihydro-dibenzo[a,d]cyclohepten-5-ylidenemethyl)-phenylamine] | > 250 | < 500 | < 1000
CN(c1cccc(C=C2c3ccccc3CCc3ccccc32)c1)S(C)(=O)=O [Example 124, N-[3-(10,11-Dihydro-dibenzo[a,d]cyclohepten-5-ylidenemethyl)-phenyl]-N-methyl-methanesulfonamide] | 124.2 | – | –
Cc1nc2c(o1)CCc1ccccc1/C2=C/c1cccc(NS(C)(=O)=O)c1 [Example 247, N-[3-(2-Methyl-9,10-dihydro-1-oxa-3-aza-benzo[f]azulen-4-ylidenemethyl)-phenyl]-methanesulfonamide] | 184.6 | – | –

Now from value to compound:

melting point [°C] | Ki (human MR) [nM] | Ki (glucocorticoid receptor) [nM] | SMILES
153.9 | < 500 | < 500 | CNS(=O)(=O)c1cccc(C=C2c3ccccc3CCc3ccccc32)c1 [Example 1, 3-(10,11-Dihydro-dibenzo[a,d]cyclohepten-5-ylidenemethyl)-N-methyl-benzenesulfonamide]
174.9 | < 500 | < 500 | CNS(=O)(=O)c1cc(C)ccc1C=C1c2ccccc2CCc2ccccc21 [Example 2, 2-(10,11-Dihydro-dibenzo[a,d]cyclohepten-5-ylidenemethyl)-5,N-dimethyl-benzenesulfonamide]
149 | < 500 | < 1000 | CNS(=O)(=O)c1ccccc1C=C1c2ccccc2CCc2ccccc21 [Example 4, 2-(10,11-Dihydro-dibenzo[a,d]cyclohepten-5-ylidenemethyl)-N-methyl-benzenesulfonamide]
155.6 | < 500 | < 500 | CCCNS(=O)(=O)c1ccccc1C=C1c2ccccc2CCc2ccccc21 [Example 6, 2-(10,11-Dihydro-benzo[a,d]cyclohepten-5-ylidenemethyl)-N-propyl-benzenesulfonamide]
189.7 | < 500 | < 1000 | CNS(=O)(=O)c1ccc(C=C2c3ccccc3CCc3ccccc32)cc1 [Example 27, 4-(10,11-Dihydro-dibenzo[a,d]cyclohepten-5-ylidenemethyl)-N-methyl-benzenesulfonamide]
129.3 | < 500 | < 10000 | COc1ccccc1C=C1c2ccccc2CCc2ccccc21 [Example 31, 5-(2-Methoxy-benzylidene)-10,11-dihydro-5H-dibenzo-[a,d]cycloheptene]
83 | < 500 | < 1000 | COc1cccc(C=C2c3ccccc3CCc3ccccc32)c1 [Example 32, 5-(3-Methoxy-benzylidene)-10,11-dibydro-5H-dibenzo-[a,d]cycloheptene]
130.6 | < 500 | < 500 | COc1cccc(C=C2c3ccccc3CCc3ccccc32)c1OC [Example 35]
56.9 | < 500 | < 10000 | Oc1ccc(C=C2c3ccccc3CCc3ccccc32)cc1 [Example 60, b-(10,11-Dihydro-dibenzo[a,d]cyclohepten-5-ylidenemethyl)-phenol]
138 | < 500 | < 10000 | Oc1ccc(C=C2c3ccccc3CCc3ccccc32)cc1O [Example 62, 4-(10,11-Dihydro-dibenzo[a,d]cyclohepten-5-ylidenemethyl)-benzene-1,2-diol]
